Test results as given in PubChem BioAssay (NCI).
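A five-concentration, 48-hour dose response in 96-well plates underlies each endpoint, interpolated linearly between surrounding concentrations. TGI marks complete inhibition of growth.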

Key:
Assay in all cases: growth of human tumour cells (NCI), 48 h
[1] = system: OVCAR-5 ovarian
[2] = system: SN12C renal
[3] = system: SK-MEL-2 melanoma
[4] = system: NCI-H522 lung
[5] = system: NCI-H23 lung
[6] = system: A549 NSCLC
[7] = system: DU-145 prostate
[8] = system: MDA-N
[9] = system: HS 578T breast
[10] = system: NCI/ADR-RES ovarian
[11] = system: NCI-H460 lung
[12] = system: NCI-H226 lung
[13] = system: MCF7 breast
[14] = system: RPMI-8226 leukemia
[15] = system: LOX IMVI melanoma
[16] = system: K-562 leukemia
[17] = system: KM12 colon
[18] = system: A498 renal

Row | SMILES | TGI [1] [µM] | TGI [2] [µM] | TGI [3] [µM] | TGI [4] [µM] | TGI [5] [µM] | TGI [6] [µM] | TGI [7] [µM] | TGI [8] [µM] | TGI [9] [µM] | TGI [10] [µM] | TGI [11] [µM] | TGI [12] [µM] | TGI [13] [µM] | TGI [14] [µM] | TGI [15] [µM] | TGI [16] [µM] | TGI [17] [µM] | TGI [18] [µM]
1 | Nc1c(Cl)c([N+](=O)[O-])cc2c1OCCCCO2 | > 100 | > 100 | > 100 | 5.28 | > 100 | > 100 | > 100 | > 100 | > 100 | > 100 | > 100 | > 100 | > 100 | > 100 | > 100 | > 100 | > 100 | –
2 | Cc1ccc(S(=O)(=O)n2cnc(CC(NC(=O)C3CCC(=O)N3C(=O)OCc3ccccc3)C(=O)N3CCCC3C(=O)NN)c2)cc1 (stereo not given) | > 100 | > 100 | > 100 | – | > 100 | > 100 | – | > 100 | > 100 | – | > 100 | > 100 | > 100 | > 100 | – | > 100 | > 100 | > 100
3 | C=CC1(c2ccc(Br)cc2)OCCCO1 | > 100 | > 100 | > 100 | > 100 | > 100 | > 100 | > 100 | > 100 | > 100 | > 100 | > 100 | > 100 | > 100 | > 100 | > 100 | > 100 | > 100 | –
4 | COc1ccc(-c2cc(-c3ccco3)c(C#N)c(=S)n2C2OC(CO)C(O)C(O)C2O)cc1 (stereo not given) | > 100 | > 100 | > 100 | > 100 | > 100 | > 100 | – | > 100 | > 100 | > 100 | > 100 | > 100 | > 100 | > 100 | > 100 | > 100 | > 100 | > 100
5 | COc1ccc(C(=O)N2CCN(c3ccc4[nH]c(=O)oc4c3)CC2)cc1 | > 100 | > 100 | > 100 | > 100 | > 100 | > 100 | > 100 | > 100 | > 100 | > 100 | > 100 | > 100 | > 100 | > 100 | > 100 | – | > 100 | –
6 | C(/C=N/NC1=NCCCN1)=N\NC1=NCCCN1 | > 100 | > 100 | – | > 100 | > 100 | > 100 | – | > 100 | > 100 | > 100 | > 100 | > 100 | > 100 | – | > 100 | > 100 | > 100 | –
7 | Cc1ccccc1NC(=O)/C(C#N)=N\Nc1nc[nH]c1C(N)=O | > 100 | > 100 | > 100 | > 100 | > 100 | > 100 | > 100 | > 100 | > 100 | > 100 | > 100 | > 100 | > 100 | > 100 | – | > 100 | > 100 | –
8 | C/C(=N/NC(=S)N1CCCC1)c1cccc(/C(C)=N\NC(=S)N2CCCC2)n1 | 6.85 | 5.73 | 4.21 | 7.77 | 6.5 | 9.01 | 38.5 | 3.89 | 25.2 | 7.62 | 3.63 | 3.76 | – | 18.1 | > 100 | > 100 | 4.46 | 2.59
9 | CCOC(=O)c1c(-c2ccccc2)[nH]c2ccc(Cl)cc2c1=O | > 100 | > 100 | > 100 | 60.8 | > 100 | > 100 | > 100 | > 100 | > 100 | > 100 | > 100 | > 100 | > 100 | > 100 | > 100 | > 100 | > 100 | –
10 | CN(C)CCN1C(=O)c2ccccc2C1(O)c1ccc(Cl)cc1 (stereo not given) | > 100 | > 100 | – | – | > 100 | > 100 | > 100 | > 100 | > 100 | > 100 | > 100 | > 100 | > 100 | > 100 | – | > 100 | > 100 | –
11 | CNC(=S)NNC1=NCCCCN1 | > 100 | – | > 100 | > 100 | > 100 | > 100 | – | > 100 | > 100 | > 100 | > 100 | > 100 | > 100 | > 100 | > 100 | > 100 | > 100 | > 100
12 | O=C(/C=C\c1ccccc1-c1ccccc1)c1ccccc1 | > 100 | > 100 | – | > 100 | > 100 | 91.9 | > 100 | > 100 | > 100 | > 100 | > 100 | > 100 | – | > 100 | – | > 100 | > 100 | > 100
